# In patent publication US7001770B1, “Calpain inhibitors and their applications” (priority 1998, dated 2006):
# Where “and” joins values, the source holds several entries; their conditions need not be identical. Identical values can stand only once. Square brackets hold non-standard residues; d marks the D form. Peptide text beside a SMILES is read from it. Nle = CCCC[C@H](N)C(=O)O
# Experiments:
# U87 cells = test: Apoptosis by annexin V-FITC staining, flow cytometry; type: cell-based
# Description: P53 was administered to the cells by the use of the replication defective adenoviral vector ACN53 described in Wills, et al., supra. The effect of varying concentrations of rAd-p53 (from 1×10^9 to 2×10^9 rAd-p53 particles/ml of solution) was investigated in combination with CI-1 in a range of 5–20 μm. The effects of individual and combination treatment was determined in the in DLD1, RKO, HLF and SK-Hep1 cells was investigated in substantial accordance with the teaching of Examples 2 and 3 herein. […] The results are presented in graphical format in FIG. 3 of the attached drawings. In brief, the results were as follows:
# The effect of an inhibitor of μ-calpains, CI-1 (N-acetyl-leu-leu-norleucinal), was investigated for its ability to enhance p53 mediated apoptosis in tumor cell lines having p53+ and p53− status listed in Table1. […] To detect a G0/G1 block, bromodeoxyuridine (BrdU) incorporation followed by flow cytometric analysis was done 17 hours post-treatment as described in Example 4 herein. […] The results of these experiments are presented in FIGS. 1 and 2 of the attached drawings. In FIG. 1, each point on the graph represents percentage annexin V positive after background percentage (DMF alone) was subtracted.
# An aliquot containing approximately 1×10^6 cells of each type was placed in a T-225 flask. The effect of varying concentrations of rAd-p53 (from 1×10^7 to 2×10^9ACN53 particles/ml of solution) was investigated in combination with CI-1 in a range of 5–20 μM. […]
# (§1) Apoptosis was monitored visually by observing blebbed nuclei characteristic of apoptosis, by propidium iodide staining (using propidium iodide commercially available from Molecular Probes, Inc.) followed by flow cytometric analysis to look for subgenomic populations of cells, and by labeling cells with annexin V-FITC (commercially available from Boehringer Mannheim) in substantial accordance with the instructions provided by the manufacturer, followed by flow cytometric analysis on a FACScan Flow Cytometer (commercially available from Becton Dickinson).
# RKO cells = test: as above; type: cell-based; conditions: for Percent Annexin V Positive Staining: 26 hours post treatment
# Description: (§2) P53 was administered to the cells by the use of the replication defective adenoviral vector ACN53 described in Wills, et al., supra. The effect of varying concentrations of rAd-p53 (from […] to 2×10^9 rAd-p53 particles/ml of solution) was investigated in combination with CI-1 in a range of 5–20 μm. The effects of individual and combination treatment was determined in the in DLD1, RKO, HLF and SK-Hep1 cells was investigated in substantial accordance with the teaching of Examples 2 and 3 herein. The percentage of apoptotic cells was determined at 17 hours post treatment (with the exception of U87 cells (24 hours) and HeLa cells (68 hours)) with annexin V positive staining. The results are presented in graphical format in FIG. 3 of the attached drawings. In brief, the results were as follows:
# (§3) The effect of an inhibitor of μ-calpains, CI-1 (N-acetyl-leu-leu-norleucinal), was investigated for its ability to enhance p53 mediated apoptosis in tumor cell lines having p53+ and p53− status listed in Table1. Each cell line was treated with 5–50 μM CI-1 for 17–26 hours. To detect a G0/G1 block, bromodeoxyuridine (BrdU) incorporation followed by flow cytometric analysis was done 17 hours post-treatment as described in Example 4 herein. […] The results of these experiments are presented in FIGS. 1 and 2 of the attached drawings. In FIG. 1, each point on the graph represents percentage annexin V positive after background percentage (DMF alone) was subtracted.
# (§4) An aliquot containing approximately 1×10^6 cells of each type was placed in a T-225 flask. The effect of varying concentrations of rAd-p53 (from 1×10^7 to 2×10^9ACN53 particles/ml of solution) was investigated in combination with CI-1 in a range of 5–20 μM. In each instance, the cell line was infected with 1×10^7–1×10^9 particles/ml of cell culture with the ACN53 using the empty cassette virus (ZZCB) as a control. In each instance, the cells were exposed to the virus for a period of one hour. At the end of this time, the virus was washed off the from the cells and fresh media containing an appropriate concentration of CI-1 was added.
# (§5) CI-1 was obtained from Boehringer-Mannheim Biochemicals (Indianapolis, Ind.). The CI-1 containing media was prepared as follows. CI-1 was diluted in dimethylformamide (DMF) to a concentration of 33.3 μM/μl. The CI-1 solution in DMF was added to achieve a final concentration in the media of 5 or 10 μM final concentration of CI-1. An equivalent volume of DMF alone was added to the control cells. Calpain inhibitor 2, N-acetyl-leu—leu-methioninal (Boehringer Mannheim) was added to cell lines at 5–50 μM final concentration with or without rAd-p53 for 26 hours.
# as §1, with “At a time of 17 (or 26 hours) post infection, the percentage of cells undergoing apoptosis was determined by convential apoptotic markers. Apoptosis” for “Apoptosis”
# SK-Hep1 cells = test: as above; type: cell-based; conditions: for Percent Annexin V Positive Staining: 26 hours post treatment
# Description: as §2, §3, §4, §5
# as §1, with “At a time of 17 (or 26 hours) post infection, the percentage of cells undergoing apoptosis was determined by convential apoptotic markers. Apoptosis” for “Apoptosis”
# DLD1 cells = test: as above; type: cell-based; conditions: for Percent Annexin V Positive Staining: 26 hours post treatment
# Description: as §2, §3, §4, §5
# as §1, with “At a time of 17 (or 26 hours) post infection, the percentage of cells undergoing apoptosis was determined by convential apoptotic markers. Apoptosis” for “Apoptosis”
# HeLa cells = test: as above; type: cell-based; conditions: for Percent Annexin V Positive Staining: 44 hours post treatment
# Description: as §2, §3, §4, §5
# as §1, with “At a time of 17 (or 26 hours) post infection, the percentage of cells undergoing apoptosis was determined by convential apoptotic markers. Apoptosis” for “Apoptosis”
# [1] = system: p53 levels in cell lines with endogenous wildtype and mutated p53 status; test: Western blot of p53 levels; type: cell-based; conditions: in response to calpain inhibitor 1 (FIG. 5)
# proteasome = conditions: below 50 μM primarily an inhibitor of calpain; cited from earlier work
compound,measurement,setting,value
"CCCC[C@@H](C=O)NC(=O)[C@H](CC(C)C)NC(=O)[C@H](CC(C)C)NC(C)=O [CI-1, N-acetyl-leu-leu-norleucinal] (Ac-Leu-Leu-[Nle]-aldehyde)",Percentage of Cells Undergoing Apoptosis,"U87 cells; 10 μM CI-1, 24 hrs",41%
same,percentage of apoptotic cells,"U87 cells; 20 μM CI-1 treatment, increase from 5%",72%
same,cells annexin V-FITC positive,"U87 cells; calpain inhibitor 1, 10 μM for 4 days",~100%
same,Percent Annexin V Positive Staining,RKO cells; CI-1 10 μM,13%
same,Percent Annexin V Positive Staining,RKO cells; CI-1 20 μM,52% and 33%
same,Percent Annexin V Positive Staining,RKO cells; CI-1 50 μM,57%
same,Percentage of Cells Undergoing Apoptosis,"RKO cells; [20 μM] CI-1, 17 hours post treatment",13%
same,Percent Annexin V Positive Staining,SK-Hep1 cells; CI-1 10 μM,32%
same,Percent Annexin V Positive Staining,SK-Hep1 cells; CI-1 20 μM,66%
same,Percent Annexin V Positive Staining,SK-Hep1 cells; CI-1 30 μM,73%
same,Percent Annexin V Positive Staining,SK-Hep1 cells; CI-1 40 μM,75%
same,Percent Annexin V Positive Staining,SK-Hep1 cells; CI-1 50 μM,73%
same,Percentage of Cells Undergoing Apoptosis,"SK-Hep1 cells; [5 μM] CI-1, 17 hours post treatment",11%
same,Percentage of Cells Undergoing Apoptosis,"DLD1 cells; 10 μM CI-1, 17 hours post treatment",15%
same,Percent Annexin V Positive Staining,DLD1 cells; CI-1 10 μM,15%
same,Percent Annexin V Positive Staining,DLD1 cells; CI-1 20 μM,17%
same,Percent Annexin V Positive Staining,DLD1 cells; CI-1 30 μM,17%
same,Percent Annexin V Positive Staining,DLD1 cells; CI-1 50 μM,18%
same,Percentage of Cells Undergoing Apoptosis,"HeLa cells; 10 μM CI-1, 68 hours post treatment",8.3%
same,Percent Annexin V Positive Staining,HeLa cells; CI-1 10 μM,28%
same,Percent Annexin V Positive Staining,HeLa cells; CI-1 20 μM,48%
same,Percent Annexin V Positive Staining,HeLa cells; CI-1 30 μM,55%
same,Percent Annexin V Positive Staining,HeLa cells; CI-1 40 μM,67%
same,Percent Annexin V Positive Staining,HeLa cells; CI-1 50 μM,80%
same,induction of apoptosis,"HeLa cells; higher concentrations of CI-1, HeLa have E6 mediated degradation of p53",induced to apoptosis
same,increase in p53 levels,[1],2–5 ×
same,concentration above which CI-1 inhibits proteasome function,proteasome,above 50 μM
